Results on 20 substances are retold here after the OligoGym collection.

Oligonucleotides are given in HELM: sugar(base)linkage, 5' to 3'; d 2'-deoxyribose, r ribose, m 2'-O-methylribose, p phosphate. ss, as = sense and antisense strand
Further: test concentration or dose not given here.

In this series the target is TMEM63B. The experiment in a line: reporter assay of Huesken 2005. Conditions: siRNA.
In the case of “RNA1{r(A)p.r(U)p.r(G)p.r(G)p.r(A)p.r(A)p.r(U)p.r(C)p.r(U)p.r(C)p.r(C)p.r(A)p.r(A)p.r(A)p.r(U)p.r(A)p.r(U)p.r(G)p.r(C)p.d(T)p.d(T)}|RNA2{r(G)p.r(C)p.r(A)p.r(U)p.r(A)p.r(U)p.r(U)p.r(U)p.r(G)p.r(G)p.r(A)p.r(G)p.r(A)p.r(U)p.r(U)p.r(C)p.r(C)p.r(A)p.r(U)p.d(T)p.d(G)}$$$RNA1{StrandType:ss}|RNA2{StrandType:as}$”, the normalised inhibition (eCFP-eYFP dual reporter) amounted to 78.7%.

The substance “RNA1{r(A)p.r(U)p.r(U)p.r(U)p.r(U)p.r(G)p.r(A)p.r(G)p.r(G)p.r(A)p.r(A)p.r(G)p.r(C)p.r(C)p.r(U)p.r(A)p.r(C)p.r(C)p.r(C)p.d(T)p.d(T)}|RNA2{r(G)p.r(G)p.r(G)p.r(U)p.r(A)p.r(G)p.r(G)p.r(C)p.r(U)p.r(U)p.r(C)p.r(C)p.r(U)p.r(C)p.r(A)p.r(A)p.r(A)p.r(A)p.r(U)p.d(G)p.d(C)}$$$RNA1{StrandType:ss}|RNA2{StrandType:as}$” displayed a normalised inhibition (eCFP-eYFP dual reporter) of 27.8%.

Consider “RNA1{r(C)p.r(A)p.r(C)p.r(C)p.r(A)p.r(C)p.r(U)p.r(C)p.r(C)p.r(A)p.r(G)p.r(C)p.r(C)p.r(A)p.r(U)p.r(C)p.r(A)p.r(U)p.r(C)p.d(T)p.d(T)}|RNA2{r(G)p.r(A)p.r(U)p.r(G)p.r(A)p.r(U)p.r(G)p.r(G)p.r(C)p.r(U)p.r(G)p.r(G)p.r(A)p.r(G)p.r(U)p.r(G)p.r(G)p.r(U)p.r(G)p.d(A)p.d(G)}$$$RNA1{StrandType:ss}|RNA2{StrandType:as}$”, for which the normalised inhibition (eCFP-eYFP dual reporter) was determined as 70.2%.

As for “RNA1{r(C)p.r(A)p.r(C)p.r(C)p.r(C)p.r(A)p.r(G)p.r(U)p.r(U)p.r(C)p.r(U)p.r(U)p.r(C)p.r(C)p.r(C)p.r(C)p.r(A)p.r(C)p.r(C)p.d(T)p.d(T)}|RNA2{r(G)p.r(G)p.r(U)p.r(G)p.r(G)p.r(G)p.r(G)p.r(A)p.r(A)p.r(G)p.r(A)p.r(A)p.r(C)p.r(U)p.r(G)p.r(G)p.r(G)p.r(U)p.r(G)p.d(A)p.d(T)}$$$RNA1{StrandType:ss}|RNA2{StrandType:as}$”, the normalised inhibition (eCFP-eYFP dual reporter) was determined as 56.1%.

Take “RNA1{r(C)p.r(A)p.r(C)p.r(U)p.r(U)p.r(C)p.r(A)p.r(A)p.r(A)p.r(U)p.r(A)p.r(C)p.r(C)p.r(U)p.r(C)p.r(A)p.r(G)p.r(U)p.r(G)p.d(T)p.d(T)}|RNA2{r(C)p.r(A)p.r(C)p.r(U)p.r(G)p.r(A)p.r(G)p.r(G)p.r(U)p.r(A)p.r(U)p.r(U)p.r(U)p.r(G)p.r(A)p.r(A)p.r(G)p.r(U)p.r(G)p.d(T)p.d(C)}$$$RNA1{StrandType:ss}|RNA2{StrandType:as}$”: the normalised inhibition (eCFP-eYFP dual reporter) was 55%.

“RNA1{r(C)p.r(A)p.r(G)p.r(C)p.r(C)p.r(A)p.r(U)p.r(C)p.r(A)p.r(U)p.r(C)p.r(A)p.r(U)p.r(C)p.r(A)p.r(C)p.r(C)p.r(A)p.r(C)p.d(T)p.d(T)}|RNA2{r(G)p.r(U)p.r(G)p.r(G)p.r(U)p.r(G)p.r(A)p.r(U)p.r(G)p.r(A)p.r(U)p.r(G)p.r(A)p.r(U)p.r(G)p.r(G)p.r(C)p.r(U)p.r(G)p.d(G)p.d(A)}$$$RNA1{StrandType:ss}|RNA2{StrandType:as}$” returned a normalised inhibition (eCFP-eYFP dual reporter) of 74.3%.

Take “RNA1{r(C)p.r(A)p.r(G)p.r(C)p.r(U)p.r(C)p.r(C)p.r(G)p.r(U)p.r(U)p.r(G)p.r(A)p.r(C)p.r(U)p.r(U)p.r(U)p.r(G)p.r(A)p.r(C)p.d(T)p.d(T)}|RNA2{r(G)p.r(U)p.r(C)p.r(A)p.r(A)p.r(A)p.r(G)p.r(U)p.r(C)p.r(A)p.r(A)p.r(C)p.r(G)p.r(G)p.r(A)p.r(G)p.r(C)p.r(U)p.r(G)p.d(G)p.d(A)}$$$RNA1{StrandType:ss}|RNA2{StrandType:as}$”: the normalised inhibition (eCFP-eYFP dual reporter) amounted to 84.4%.

In the case of “RNA1{r(C)p.r(A)p.r(G)p.r(G)p.r(A)p.r(C)p.r(A)p.r(A)p.r(C)p.r(C)p.r(A)p.r(U)p.r(G)p.r(C)p.r(A)p.r(C)p.r(A)p.r(A)p.r(G)p.d(T)p.d(T)}|RNA2{r(C)p.r(U)p.r(U)p.r(G)p.r(U)p.r(G)p.r(C)p.r(A)p.r(U)p.r(G)p.r(G)p.r(U)p.r(U)p.r(G)p.r(U)p.r(C)p.r(C)p.r(U)p.r(G)p.d(T)p.d(T)}$$$RNA1{StrandType:ss}|RNA2{StrandType:as}$”, the normalised inhibition (eCFP-eYFP dual reporter) came out at 61.5%.

Consider “RNA1{r(C)p.r(A)p.r(G)p.r(G)p.r(C)p.r(C)p.r(U)p.r(G)p.r(C)p.r(U)p.r(C)p.r(A)p.r(U)p.r(G)p.r(U)p.r(A)p.r(C)p.r(A)p.r(U)p.d(T)p.d(T)}|RNA2{r(A)p.r(U)p.r(G)p.r(U)p.r(A)p.r(C)p.r(A)p.r(U)p.r(G)p.r(A)p.r(G)p.r(C)p.r(A)p.r(G)p.r(G)p.r(C)p.r(C)p.r(U)p.r(G)p.d(G)p.d(G)}$$$RNA1{StrandType:ss}|RNA2{StrandType:as}$”, for which the normalised inhibition (eCFP-eYFP dual reporter) was 72.1%.

The substance “RNA1{r(C)p.r(A)p.r(U)p.r(C)p.r(C)p.r(C)p.r(A)p.r(A)p.r(G)p.r(A)p.r(U)p.r(G)p.r(A)p.r(G)p.r(G)p.r(A)p.r(G)p.r(U)p.r(U)p.d(T)p.d(T)}|RNA2{r(A)p.r(A)p.r(C)p.r(U)p.r(C)p.r(C)p.r(U)p.r(C)p.r(A)p.r(U)p.r(C)p.r(U)p.r(U)p.r(G)p.r(G)p.r(G)p.r(A)p.r(U)p.r(G)p.d(A)p.d(G)}$$$RNA1{StrandType:ss}|RNA2{StrandType:as}$” displayed a normalised inhibition (eCFP-eYFP dual reporter) of 53%.

Substance “RNA1{r(C)p.r(A)p.r(U)p.r(C)p.r(U)p.r(G)p.r(G)p.r(U)p.r(G)p.r(G)p.r(C)p.r(U)p.r(G)p.r(C)p.r(G)p.r(C)p.r(U)p.r(G)p.r(C)p.d(T)p.d(T)}|RNA2{r(G)p.r(C)p.r(A)p.r(G)p.r(C)p.r(G)p.r(C)p.r(A)p.r(G)p.r(C)p.r(C)p.r(A)p.r(C)p.r(C)p.r(A)p.r(G)p.r(A)p.r(U)p.r(G)p.d(A)p.d(A)}$$$RNA1{StrandType:ss}|RNA2{StrandType:as}$” came in with a normalised inhibition (eCFP-eYFP dual reporter) of 29.3%.

Consider “RNA1{r(C)p.r(A)p.r(U)p.r(G)p.r(A)p.r(C)p.r(C)p.r(U)p.r(A)p.r(C)p.r(A)p.r(G)p.r(U)p.r(A)p.r(U)p.r(C)p.r(A)p.r(C)p.r(C)p.d(T)p.d(T)}|RNA2{r(G)p.r(G)p.r(U)p.r(G)p.r(A)p.r(U)p.r(A)p.r(C)p.r(U)p.r(G)p.r(U)p.r(A)p.r(G)p.r(G)p.r(U)p.r(C)p.r(A)p.r(U)p.r(G)p.d(A)p.d(C)}$$$RNA1{StrandType:ss}|RNA2{StrandType:as}$”, for which the normalised inhibition (eCFP-eYFP dual reporter) was determined as 58.9%.

Regarding “RNA1{r(C)p.r(C)p.r(A)p.r(C)p.r(U)p.r(C)p.r(C)p.r(A)p.r(G)p.r(C)p.r(C)p.r(A)p.r(U)p.r(C)p.r(A)p.r(U)p.r(C)p.r(A)p.r(U)p.d(T)p.d(T)}|RNA2{r(A)p.r(U)p.r(G)p.r(A)p.r(U)p.r(G)p.r(A)p.r(U)p.r(G)p.r(G)p.r(C)p.r(U)p.r(G)p.r(G)p.r(A)p.r(G)p.r(U)p.r(G)p.r(G)p.d(T)p.d(G)}$$$RNA1{StrandType:ss}|RNA2{StrandType:as}$”, the normalised inhibition (eCFP-eYFP dual reporter) was determined as 77.4%.

Substance “RNA1{r(C)p.r(C)p.r(A)p.r(U)p.r(C)p.r(C)p.r(U)p.r(C)p.r(U)p.r(G)p.r(C)p.r(C)p.r(U)p.r(C)p.r(U)p.r(U)p.r(C)p.r(U)p.r(G)p.d(T)p.d(T)}|RNA2{r(C)p.r(A)p.r(G)p.r(A)p.r(A)p.r(G)p.r(A)p.r(G)p.r(G)p.r(C)p.r(A)p.r(G)p.r(A)p.r(G)p.r(G)p.r(A)p.r(U)p.r(G)p.r(G)p.d(G)p.d(C)}$$$RNA1{StrandType:ss}|RNA2{StrandType:as}$” displayed a normalised inhibition (eCFP-eYFP dual reporter) of 53.2%.

“RNA1{r(C)p.r(C)p.r(C)p.r(A)p.r(U)p.r(C)p.r(A)p.r(U)p.r(C)p.r(A)p.r(C)p.r(C)p.r(C)p.r(A)p.r(G)p.r(U)p.r(U)p.r(C)p.r(U)p.d(T)p.d(T)}|RNA2{r(A)p.r(G)p.r(A)p.r(A)p.r(C)p.r(U)p.r(G)p.r(G)p.r(G)p.r(U)p.r(G)p.r(A)p.r(U)p.r(G)p.r(A)p.r(U)p.r(G)p.r(G)p.r(G)p.d(G)p.d(T)}$$$RNA1{StrandType:ss}|RNA2{StrandType:as}$” registered a normalised inhibition (eCFP-eYFP dual reporter) of 68.7%.

“RNA1{r(C)p.r(C)p.r(C)p.r(G)p.r(U)p.r(G)p.r(U)p.r(U)p.r(A)p.r(C)p.r(A)p.r(A)p.r(C)p.r(G)p.r(U)p.r(G)p.r(G)p.r(C)p.r(U)p.d(T)p.d(T)}|RNA2{r(A)p.r(G)p.r(C)p.r(C)p.r(A)p.r(C)p.r(G)p.r(U)p.r(U)p.r(G)p.r(U)p.r(A)p.r(A)p.r(C)p.r(A)p.r(C)p.r(G)p.r(G)p.r(G)p.d(C)p.d(G)}$$$RNA1{StrandType:ss}|RNA2{StrandType:as}$” came in with a normalised inhibition (eCFP-eYFP dual reporter) of 75.8%.

Regarding “RNA1{r(C)p.r(C)p.r(G)p.r(C)p.r(C)p.r(G)p.r(A)p.r(G)p.r(A)p.r(G)p.r(G)p.r(C)p.r(G)p.r(C)p.r(A)p.r(A)p.r(C)p.r(G)p.r(U)p.d(T)p.d(T)}|RNA2{r(A)p.r(C)p.r(G)p.r(U)p.r(U)p.r(G)p.r(C)p.r(G)p.r(C)p.r(C)p.r(U)p.r(C)p.r(U)p.r(C)p.r(G)p.r(G)p.r(C)p.r(G)p.r(G)p.d(C)p.d(C)}$$$RNA1{StrandType:ss}|RNA2{StrandType:as}$”, the normalised inhibition (eCFP-eYFP dual reporter) was found to be 21.8%.

Take “RNA1{r(C)p.r(C)p.r(G)p.r(U)p.r(G)p.r(C)p.r(A)p.r(C)p.r(U)p.r(A)p.r(C)p.r(C)p.r(U)p.r(G)p.r(U)p.r(C)p.r(C)p.r(U)p.r(U)p.d(T)p.d(T)}|RNA2{r(A)p.r(A)p.r(G)p.r(G)p.r(A)p.r(C)p.r(A)p.r(G)p.r(G)p.r(U)p.r(A)p.r(G)p.r(U)p.r(G)p.r(C)p.r(A)p.r(C)p.r(G)p.r(G)p.d(C)p.d(A)}$$$RNA1{StrandType:ss}|RNA2{StrandType:as}$”: the normalised inhibition (eCFP-eYFP dual reporter) came to 86.8%.

Take “RNA1{r(C)p.r(C)p.r(U)p.r(A)p.r(C)p.r(A)p.r(G)p.r(C)p.r(U)p.r(U)p.r(U)p.r(G)p.r(G)p.r(G)p.r(A)p.r(G)p.r(A)p.r(A)p.r(C)p.d(T)p.d(T)}|RNA2{r(G)p.r(U)p.r(U)p.r(C)p.r(U)p.r(C)p.r(C)p.r(C)p.r(A)p.r(A)p.r(A)p.r(G)p.r(C)p.r(U)p.r(G)p.r(U)p.r(A)p.r(G)p.r(G)p.d(C)p.d(A)}$$$RNA1{StrandType:ss}|RNA2{StrandType:as}$”: the normalised inhibition (eCFP-eYFP dual reporter) came to 81.9%.

For “RNA1{r(C)p.r(C)p.r(U)p.r(C)p.r(U)p.r(U)p.r(C)p.r(A)p.r(U)p.r(C)p.r(A)p.r(A)p.r(U)p.r(G)p.r(G)p.r(A)p.r(A)p.r(U)p.r(C)p.d(T)p.d(T)}|RNA2{r(G)p.r(A)p.r(U)p.r(U)p.r(C)p.r(C)p.r(A)p.r(U)p.r(U)p.r(G)p.r(A)p.r(U)p.r(G)p.r(A)p.r(A)p.r(G)p.r(A)p.r(G)p.r(G)p.d(G)p.d(T)}$$$RNA1{StrandType:ss}|RNA2{StrandType:as}$”, the normalised inhibition (eCFP-eYFP dual reporter) turned out to be 73.9%.
